Data reported in patent publication US12679846B2, “Xanthone compound having excellent anticancer effect” (KOREA INSTITUTE OF OCEAN SCIENCE & TECHNOLOGY, priority 2021, dated 2026).

Assays:
[1] = system: various types of cancer cell lines; test: Cytotoxicity test (SRB assay), summary over the six cancer cell lines; assay type: cell-based; details: Homo sapiens; range over six cancer cell lines; read-out: GI50 values ranging (over the cell lines of Table 2)
Experimental: (§1) Human cancer cell lines HCT-15 (colon cancer), NUGC-3 (stomach cancer), NCI-H23 ([…]), ACHN (kidney cancer), PC-3 (prostate cancer), and MDA-MB-231 (breast cancer) were purchased and used from American Type Culture Collection (Manassas, VA).
(§2) Each of the cancer cell lines was cultured in RPMI 1640 supplemented with 10% fetal bovine serum (FBS) at 37° C. in a humidified atmosphere of 5% CO2. Growth inhibition was evaluated for human cancer cell lines using a sulforhodamine B (SRB) assay. The cells were dispensed in a 96-well plate at a density of 8000 cells/well, and the next day, the cells were treated with each of Examples 1 and 2 (0.1% DMSO as vehicle control), and a positive control group was treated with Adriamycin. The cells were cultured for 48 hours, and then each culture medium was fixed with 50% trichloroacetic acid ([…]) and stained using 0.4% sulforhodamine B in 1% acetic acid. An unbound dye was washed with 1% acetic acid, and the dye bound to a protein was extracted with 10 mM Tris base (pH 10.5) to determine the optical density. Absorbance at 540 nm was determined using a VersaMax microplate reader (Molecular Devices, LLC, Sunnyvale, CA, USA). GI50 values were calculated using GraphPad Prism 4.0 software (GraphPad Software, Inc., San Diego, CA, USA), and the results are described in Table 2 below.

[2] = system: NCI-H23; test: Cytotoxicity test against cancer cell lines (SRB assay), NCI-H23; assay type: cell-based; details: Homo sapiens, NCI-H23, 48 hours
Experimental: as §1, §2

[3] = system: MDA-MB-231 (breast cancer); test: Cytotoxicity test against cancer cell lines (SRB assay), MDA-MB-231; assay type: cell-based; details: Homo sapiens, MDA-MB-231, 48 hours
Experimental: as §1, §2

[4] = system: NUGC-3 (stomach cancer); test: Cytotoxicity test against cancer cell lines (SRB assay), NUGC-3; assay type: cell-based; details: Homo sapiens, NUGC-3, 48 hours
Experimental: as §1, §2

[5] = system: human-derived breast cancer cell line MDA-MB-231; test: Anticancer effect in animal test on breast cancer cell line (MDA-MB-231) transplanted in nude mice; assay type: in vivo, BALB/C nude mouse; details: for Inhibition rate (tumor size, vs Control group); tumor growth inhibition: day 23 (last day)
Experimental: Cancer cells (human-derived breast cancer cell line MDA-MB-231) that had been frozen-stored in liquid nitrogen were thawed and then cultured. The cells were cultured in a CO2 incubator (NuAire, USA) at a temperature of 37° C. and a CO2 concentration of 5%.
Lineage and Sex: Specific pathogen-free (SPF) BALB/C strain and female nude mouse (Orient Bio Co., Ltd.)
Week-old: Age at time of obtainment—5 week-old/Age at time of cancer cell transplantation—6 week-old/Age at time of drug administration—7 week-old
On the final day of cancer cell culture, all cancer cells were collected and counted, and the cell concentration was adjusted to 3×10^7 cells/ml using serum free media. 0.3 ml (9×10^6 cells/mouse) of the cell culture medium adjusted in this way per mouse was injected subcutaneously in the axillary area between the right scapular region and chest wall.
Calculation of Tumor Size Changes
After cancer cell transplantation, until the 23rd day since the average tumor size for each group reached about 14.2 mm^3, tumor sizes were measured a total 11 times in three directions using Vernier calipers for each individual, and then expressed in Equation of length×width×height/2.
On the 23rd day after the start of drug administration, all subjects were killed using CO2 gas, and the tumors were separated, weighed on chemical balance, and photographed.
Statistical analysis was performed using GraphPad Prism software from GraphPad Software. Changes in body weight and tumor volume according to a day were analyzed using a Bonferroni multiple comparison test after two-way ANOVA, and tumor weight on the final day was analyzed using a Dunnett's multiple comparison test after one-way ANOVA.

[6] = system: PC-3 (prostate cancer); test: Cytotoxicity test against cancer cell lines (SRB assay), PC-3; assay type: cell-based; details: Homo sapiens, PC-3, 48 hours
Experimental: as §1, §2

[7] = system: HCT-15 (colon cancer); test: Cytotoxicity test against cancer cell lines (SRB assay), HCT-15; assay type: cell-based; details: Homo sapiens, HCT-15, 48 hours
Experimental: as §1, §2

[8] = system: ACHN (kidney cancer); test: Cytotoxicity test against cancer cell lines (SRB assay), ACHN; assay type: cell-based; details: Homo sapiens, 48 hours
Experimental: as §1, §2

[9] = General symptoms and autopsy findings in MDA-MB-231 cancer cell transplant nude mice; details: 2 mg/kg repeatedly intraperitoneally
Experimental: Preparation and Administration of Experimental Substances Samples were prepared for administration in Examples 1 and 2. Each of the two compounds prepared above was dissolved in dimethylacetamide (DMAC) to make 0.1 mg/ml of a stock, and then 10% tween80 and 20% HPβCD 80% were added stepwise to a 10% DMAC stock to be prepared at a final concentration of 0.01 mg/ml, and as a comparison group for comparison of anticancer effects, doxorubicin was dissolved in physiological saline to prepare an experimental substance at a concentration of 0.2 mg/ml. The prepared experimental substance was repeatedly administered intraperitoneally total 18 times by 0.2 ml per 20 g of the mouse, 5 times a week on a dosing schedule (days 0 to 4, 7 to 11, 14 to 19, 21 to 23).

[10] = day 2, 0.1 mg/kg intraperitoneally
[11] = day 4, 0.1 mg/kg intraperitoneally
[12] = day 7, 0.1 mg/kg intraperitoneally
[13] = day 9, 0.1 mg/kg intraperitoneally
[14] = day 11, 0.1 mg/kg intraperitoneally
[15] = day 14, 0.1 mg/kg intraperitoneally
[16] = day 16, 0.1 mg/kg intraperitoneally
[17] = day 18, 0.1 mg/kg intraperitoneally
[18] = day 21, 0.1 mg/kg intraperitoneally
[19] = day 23, 0.1 mg/kg intraperitoneally
[20] = day 2, 2 mg/kg intraperitoneally
[21] = day 4, 2 mg/kg intraperitoneally
[22] = day 7, 2 mg/kg intraperitoneally
[23] = day 9, 2 mg/kg intraperitoneally
[24] = day 11, 2 mg/kg intraperitoneally
[25] = day 14, 2 mg/kg intraperitoneally
[26] = day 16, 2 mg/kg intraperitoneally
[27] = day 18, 2 mg/kg intraperitoneally
[28] = day 21, 2 mg/kg intraperitoneally
[29] = day 23, 2 mg/kg intraperitoneally

With COc1ccc2c(=O)c3c(O)c4c(c(O)c3oc2c1OC)CCc1c(OC2OC(C)C(OC)C(OC)C2OC)c2c(c(O)c1-4)C(=O)OC(C)C2 (stereo not shown) [Example 2, 8,15,16-trihydroxy-10,11-dimethoxy-3-methyl-5-((3,4,5-trimethoxy-6-methyltetrahydro-2H-pyran-2-yl)oxy)-3,4,6,7-tetrahydropyrano[4′,3′:6,7]naphtho[1,2-b]xanthene-1,14-dione] the GI50 [1] was 3 to 5 nM, the GI50 [2] was 4 nM and the GI50 [3] was 4 nM. The GI50 [4] was 3 nM, the “Tumor size (Δt = Vt − Vo)” value ([5]; day 0, 0.1 mg/kg intraperitoneally) was 0 mm^3 and the “Inhibition rate (tumor size, vs Control group)” value [5, 10] was 53.2%. The “Tumor size (Δt = Vt − Vo)” value [5, 10] was 5.8 mm^3, the “Inhibition rate (tumor size, vs Control group)” value [5, 11] was 59.3% and the “Tumor size (Δt = Vt − Vo)” value [5, 11] was 10.1 mm^3. The “Inhibition rate (tumor size, vs Control group)” value [5, 12] was 51.6%, the “Tumor size (Δt = Vt − Vo)” value [5, 12] was 23.6 mm^3 and the “Inhibition rate (tumor size, vs Control group)” value [5, 13] was 49.3%. The “Tumor size (Δt = Vt − Vo)” value [5, 13] was 30.1 mm^3, the “Inhibition rate (tumor size, vs Control group)” value [5, 14] was 43.3% and the “Tumor size (Δt = Vt − Vo)” value [5, 14] was 53.1 mm^3. For the same compound, the “Inhibition rate (tumor size, vs Control group)” value [5, 15] was 50.7%, the “Tumor size (Δt = Vt − Vo)” value [5, 15] was 96.9 mm^3 and the “Inhibition rate (tumor size, vs Control group)” value [5, 16] was 57.9%. The “Tumor size (Δt = Vt − Vo)” value [5, 16] was 155.5 mm^3, the “Inhibition rate (tumor size, vs Control group)” value [5, 17] was 46.1% and the “Tumor size (Δt = Vt − Vo)” value [5, 17] was 297 mm^3. The “Inhibition rate (tumor size, vs Control group)” value [5, 18] was 54.6%, the “Tumor size (Δt = Vt − Vo)” value [5, 18] was 447.7 mm^3 and the “Inhibition rate (tumor size, vs Control group); tumor growth inhibition” value ([5]; 0.1 mg/kg intraperitoneally) was 56.7%. For the same compound, the “Inhibition rate (tumor weight, vs Control group); reduction in tumor weight” value [5, 19] was 52.8%, the “Tumor size (Δt = Vt − Vo)” value [5, 19] was 593.3 mm^3 and the “Tumor weight on final day” value [5, 19] was 1033.4 mg. It also gave a GI50 [6] of 3 nM, a GI50 [7] of 5 nM and a GI50 [8] of 5 nM.

In the case of COc1cccc2c1C(=O)c1c(O)c3c(c(O)c1C2=O)C[C@@](O)(C(=O)CO)C[C@@H]3O[C@H]1C[C@H](N)[C@H](O)[C@H](C)O1 [doxorubicin], the GI50 [2] was 139 nM, the GI50 [3] was 146 nM and the “General symptoms during administration and organs upon necropsy on the final day” value [9] was “no abnormal findings”. The GI50 [4] was 145 nM, the “Tumor size (Δt = Vt − Vo)” value ([5]; day 0, 2 mg/kg intraperitoneally) was 0 mm^3 and the “Inhibition rate (tumor size, vs Control group)” value [5, 20] was 65.3%. The “Tumor size (Δt = Vt − Vo)” value [5, 20] was 4.3 mm^3, the “Inhibition rate (tumor size, vs Control group)” value [5, 21] was 64% and the “Tumor size (Δt = Vt − Vo)” value [5, 21] was 8.9 mm^3. For the same compound, the “Inhibition rate (tumor size, vs Control group)” value [5, 22] was 67.8%, the “Tumor size (Δt = Vt − Vo)” value [5, 22] was 15.7 mm^3 and the “Inhibition rate (tumor size, vs Control group)” value [5, 23] was 67.9%. For the same compound, the “Tumor size (Δt = Vt − Vo)” value [5, 23] was 19.1 mm^3, the “Inhibition rate (tumor size, vs Control group)” value [5, 24] was 70.4% and the “Tumor size (Δt = Vt − Vo)” value [5, 24] was 27.7 mm^3. The “Inhibition rate (tumor size, vs Control group)” value [5, 25] was 80.5%, the “Tumor size (Δt = Vt − Vo)” value [5, 25] was 38.3 mm^3 and the “Inhibition rate (tumor size, vs Control group)” value [5, 26] was 83%. The “Tumor size (Δt = Vt − Vo)” value [5, 26] was 62.7 mm^3, the “Inhibition rate (tumor size, vs Control group)” value [5, 27] was 83.3% and the “Tumor size (Δt = Vt − Vo)” value [5, 27] was 92 mm^3. For the same compound, the “Inhibition rate (tumor size, vs Control group)” value [5, 28] was 77.5%, the “Tumor size (Δt = Vt − Vo)” value [5, 28] was 222.1 mm^3 and the “Inhibition rate (tumor size, vs Control group); tumor growth inhibition” value ([5]; 2 mg/kg intraperitoneally, listed as Comparison group, 2 mg/kg) was 79%. The “Inhibition rate (tumor size, vs Control group); tumor growth inhibition” value ([5]; 2 mg/kg intraperitoneally, listed as comparison group, 2 mg/kg) was 79.0%, the “Inhibition rate (tumor weight, vs Control group); reduction in tumor weight” value [5, 29] was 75.9% and the “Tumor size (Δt = Vt − Vo)” value [5, 29] was 287.9 mm^3. The “Tumor weight on final day” value [5, 29] was 527.9 mg, the GI50 [6] was 137 nM and the GI50 [7] was 153 nM. For the same compound, the GI50 [8] was 151 nM.
